Test results published in PubChem BioAssay (NCI).
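Growth conditions: 96-well plates. Treatment: test compound, 48 hours, 5 concentrations. Analysis: linear interpolation between bracketing concentrations; unreached endpoints set to highest concentration. TGI: total growth inhibition.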

Key:
Assay in all cases: DTP human tumour cell line panel, 48 h
LXFL 529 NSCLC = system: LXFL 529 NSCLC
DLD-1 colon = system: DLD-1 colon
RXF-631 renal = system: RXF-631 renal
DMS 273 small cell lung = system: DMS 273 small cell lung
DMS 114 small cell lung = system: DMS 114 small cell lung
XF 498 CNS = system: XF 498 CNS

Structure (SMILES)	TGI (LXFL 529 NSCLC) [µM]	TGI (DLD-1 colon) [µM]	TGI (RXF-631 renal) [µM]	TGI (DMS 273 small cell lung) [µM]	TGI (DMS 114 small cell lung) [µM]	TGI (XF 498 CNS) [µM]
COc1nc2nccc-2c2occn12	> 100	> 100	> 100	> 100	> 100	> 100
N#C/C(=C\c1cccc(O)c1)C(N)=O	> 100	> 100	> 100	> 100	> 100	> 100
COc1cccc(C(=O)C2C(=O)N(C)CCc3ccccc32)c1OC (stereo unspecified)	> 100	> 100	> 100	> 100	> 100	> 100
COc1ccc2oc3cccc(NCCN(C)C)c3c(=O)c2c1	26	27.5	32.4	25.3	27	28
CCCCCCCCCc1cc(=O)c2ccc(O)cc2o1	> 100	> 100	> 100	> 100	> 100	> 100
CN(C)CCCN1CCc2c([nH]c3ccccc23)C1c1cccnc1 (stereo unspecified)	> 100	> 100	> 100	> 100	> 100	> 100
Cc1cc(=O)oc2cc3c(cc12)Oc1ccccc1O3	> 100	> 100	> 100	> 100	> 100	> 10
CCCCCCCCCCCCCCCC(=O)OCC1OC(n2c(O)c(N=NC(N)=S)c3ccc([N+](=O)[O-])cc32)C(OC(C)=O)C1OC(C)=O (stereo unspecified)	> 100	> 100	> 100	> 100	> 100	> 100
O=C1C2=C(c3ccccc31)C(c1ccccc1)NC(=S)N2 (stereo unspecified)	> 100	> 100	> 100	> 100	> 100	> 100
COc1ccc(NC(=O)c2cc(OC)c(OC)c(OC)c2)cc1	> 100	> 100	> 100	> 100	> 100	> 100
O=C(CN1CCN(c2ccccc2)CC1)N1CCc2c([nH]c3ccccc23)C1c1cccnc1 (stereo unspecified)	> 100	> 100	> 94.5	> 100	> 65	71.8
